# Reference: patent US20110262502A1, “PULMONARY DELIVERY OF 17-HYDROXYPROGESTERONE CAPROATE (17-HPC)” (Prairie Pharmaceuticals LLC, priority 2010, published 2011)
# Experiments:
# [1] = API particle size distribution (Dv(10), Dv(50), Dv(90), Span); assay type: physicochemical; settings: 5% (w/w) in water, 15% Tween 80, 90 bar
# Excerpt: In determining and characterizing particle size, e.g., particle size of an API (active pharmaceutical ingredient), the particle size parameters Dv(10), Dv(50) and Dv(90) may be used. Particle size measurements are preferably expressed in terms of Dv(10), Dv(50), and Dv(90), wherein Dv(10) refers to the particle size below which 10% of the volume of material exists; Dv(50) refers to the particle size below which 50% of the volume of material exists; and Dv(90) refers to the particle size below which 90% of the volume of material exists.
# Referring to Table 5, experiments were performed with a suspension comprising the active pharmaceutical ingredient (the API), i.e., 17-HPC was the API in these experiments, wherein 17-HPC was present at approximately five percent (5%) w/w in water; and the suspension also comprised the surfactant Tween 80 at approximately 15% in these experiments (processing conditions conducted at Pressure=90 bar). […] Particle size measurements are expressed in terms of Dv(10), Dv(50), and Dv(90), wherein Dv(10) refers to the particle size below which 10% of the volume of material exists; Dv(50) refers to the particle size below which 50% of the volume of material exists; and Dv(90) refers to the particle size below which 90% of the volume of material exists). […]
# Exemplary particle size reduction experiments, and characterization of API (i.e., 17-HPC) particle size distribution, using a suspension prepared without a surfactant. Referring to Table 7, particle size reduction of 17-HPC was observed without using any surfactant. Experiments were performed with a suspension comprising the active pharmaceutical ingredient (the API), i.e., 17-HPC in these experiments, in water and without a surfactant. FIG. 16 depicts an exemplary API particle size distribution profile (17-HPC is the active ingredient) after a spray-drying (SD) process. Referring again to FIG. 16, and also to Table 7, an exemplary 17-HPC particle size distribution profile was obtained after approximately 10 to 55 cycles of milling. API particle size was measured after spray drying (SD). Particle size measurements are expressed in terms of Dv(10), Dv(50), and Dv(90), wherein Dv(10) refers to the particle size below which 10% of the volume of material exists; Dv(50) refers to the particle size below which 50% of the volume of material exists; and Dv(90) refers to the particle size below which 90% of the volume of material exists).
# [2] = system: PHA-induced IL-2 release in IL-2 and IL-4 treated (steroid resistant) PBMCs; assay: IL-2/IL-4 induced steroid resistance model in PBMCs: dexamethasone inhibition of PHA-induced IL-2 release; assay type: cell-based, human; settings: for PHA-induced IL-2 level: FIG. 5
# Protocol: J Immunol 2009; 183; 164-171). […] Following PBMCs stimulation with mitogen phytohaemagglutinin (PHA), there is a strong correlation between cytokine secretion levels and steroid resistance as well as steroid sensitivity in vitro. Addition of IL-2, IL-4 and TNF-reduce steroid sensitivity.
# PBMCs (2×10^6) were incubated with or without IL-2 (13 ng/ml) and IL-4 (6.5 ng/ml) for 48 hours in RPMI-1640 medium containing 10% FCS and 2 mM glutamine. […] IL-2 and IL-4 stimulated PBMCs were also plated at a concentration of 10^6 cells/ml in 96-well plates ready for PHA (15 μg/mL, 24 hours) stimulation of cytokine release and detection by ELISA.
# IL-2/4 induced steroid resistance in PBMCs, a well-recognized study model, was used to evaluate potential modifiers of steroid resistance and sensitivity. PBMCs from healthy smokers were collected. Corticosteroid insensitivity or resistance was induced by adding IL-2 and IL-4 in peripheral blood mononuclear cells (PBMCs) from healthy male smokers (n=˜11). […] IL-2 levels were quantified using ELISA.
# J Immunol 2009; 183; 164-171).
# IL-2 levels were quantified using ELISA.
# [3] = FIG. 4, high dose Dexamethasone 10^−6 M
smiles,measurement,setting,value
"CCCCCC(=O)O[C@]1(C(C)=O)CC[C@H]2[C@@H]3CCC4=CC(=O)CC[C@]4(C)[C@H]3CC[C@@]21C [17HPC, 17α-HYDROXYPROGESTERONE CAPROATE]",Particle Size Dv(10),[1]; after 8 cycles,1.015 μm
same,Particle Size Dv(50),[1]; after 8 cycles,3.021 μm
same,Particle Size Dv(90),[1]; after 8 cycles,7.302 μm
same,Particle Size Span,[1]; after 8 cycles,2.081
same,Particle Size Dv(10),[1]; after 16 cycles,1.071 μm
same,Particle Size Dv(50),[1]; after 16 cycles,2.574 μm
same,Particle Size Dv(90),[1]; after 16 cycles,5.347 μm
same,Particle Size Span,[1]; after 16 cycles,1.662
same,Particle Size Dv(10),[1]; after 25 cycles,1.014 μm
same,Particle Size Dv(50),[1]; after 25 cycles,2.255 μm
same,Particle Size Dv(90),[1]; after 25 cycles,4.517 μm
same,Particle Size Span,[1]; after 25 cycles,1.553
same,highest improvement rate in Imax,[2]; [3],18%
same,improvement rate in Imax at all dose levels,[2]; [3],16-18%
same,PHA-induced IL-2 level,[2]; Dexamethasone 10^−10 M + 17HPC 10^−5M,1595 pg/mL
same,PHA-induced IL-2 level,[2]; Dexamethasone 10^−10 M + 17HPC 10^−7M,1805 pg/mL
same,PHA-induced IL-2 level,[2]; Dexamethasone 10^−10 M + 17HPC 10^−10 M,2119 pg/mL
same,subjects with more than 10% improvement in % maximal Dexamethasone inhibition,"[2]; FIG. 6, Dexamethasone 10^−6 M",Ten out of 11
